From patent US9550742B2, “11-OXO-10,11-dihydrodibenzo[B,F][1,4]thiazepine S-oxide derivatives and their use as dopamine D2 receptor antagonists” (The United States of America, as Represented by the …, priority 2013, dated 2017)

Target: T1, D2 DAR (Homo sapiens, UniProt P14416)
T1 construct: expressed in transfected cells; host or cells: HEK293 T-REx, Tet-inducible, with chimeric G-protein Gqi5
Assay: D2 Ca^2+ screen assay (calcium accumulation, HEK293 T-REx with Gqi5)
Format: cell-based
Conditions: dopamine D2 calcium release assay of Example 1; read-out: Ca^2+ AC50
Description: The resting concentration of calcium ions (Ca^2+) in the cells' cytoplasm is normally maintained in the range of 10-100 nM. To maintain this low concentration, Ca^2+ is actively pumped from the cytosol to the extracellular space and into the endoplasmic reticulum (ER), and sometimes into the mitochondria. Signaling occurs when the cell is stimulated to release Ca^2+ from intracellular stores. The most common signaling pathway that increases cytoplasmic calcium concentration is the phospholipase C (PLC) pathway. […] IP3 diffuses to the ER, binds to its receptor (IP3 receptor), which is a Ca^2+ channel and, thus, releases Ca^2+ from the ER to the cytosol. To measure this cytosolic Ca^2+ accumulation, we used the Screen Quest™ Fluo-8 Calcium Assay Kit (AAT Bioquest, Sunnyvale, Calif.). Acetoxymethyl (AM) esters bound to Fluo-8™ dye are non-polar molecules that easily cross live cell membranes transporting the dye inside the cell, and are then rapidly hydrolyzed by cellular esterases inside live cells. As Fluo-8™ is freed from AM esters, it binds to Ca^2+ and emits a fluorescent signal at 514 nm that escalates with increasing cytosolic Ca^2±. To measure this calcium flux signal, we used the Functional Drug Screening System (FDSS) (Hamamatsu, Japan), a high throughput screening device that allows optical detection of signal transmissions within living cells in a time-resolving fashion. […] Quest Fluo-8™ calcium reagent was freshly prepared prior to adding to the cells (lyophilized Fluo-8™ dye provided with the kit was re-suspended in 200 μL DMSO as a 500× stock and stored at −20° C.). 2 μL/well of Quest Fluo-8™ calcium dye diluted in HBSS +10 mM HEPES buffer (for every 10 mL buffer, 1 mL of 10× quencher provided in the kit and 20 μL of 500×DMSO stock dye were added) was added to cells with a Multi-Drop Combi (ThermoScientific) and incubated for 45-90 min in the dark at ambient temperature. Then, the plates were introduced into the FDSS where they were pinned with 23 nL of test compound or dopamine controls and were read by FDSS in non-stimulated mode for 180 sec for detection of agonists. […]

T1 sequence (P14416 whole entry): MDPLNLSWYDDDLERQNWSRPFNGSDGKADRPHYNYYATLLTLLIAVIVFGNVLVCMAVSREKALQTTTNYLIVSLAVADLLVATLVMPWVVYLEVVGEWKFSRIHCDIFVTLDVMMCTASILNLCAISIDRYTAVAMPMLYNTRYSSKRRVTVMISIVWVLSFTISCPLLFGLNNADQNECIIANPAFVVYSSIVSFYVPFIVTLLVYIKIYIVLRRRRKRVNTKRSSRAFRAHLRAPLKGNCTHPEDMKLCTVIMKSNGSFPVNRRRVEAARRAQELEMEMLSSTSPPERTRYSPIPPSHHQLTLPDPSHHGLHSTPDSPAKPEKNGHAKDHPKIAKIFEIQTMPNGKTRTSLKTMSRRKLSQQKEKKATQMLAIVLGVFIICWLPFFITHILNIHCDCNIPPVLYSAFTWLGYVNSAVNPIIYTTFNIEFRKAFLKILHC

Row | SMILES | AC50
1 | CCN1C(=O)c2ccccc2[S+]([O-])c2ccc(C(=O)NCc3cccc(OC)c3)cc21 (stereo not drawn) [Compound 2, 10-Ethyl-N-(3-methoxybenzyl)-11-oxo-10,11-dihydrodibenzo[b,f][1,4]thiazepine-8-carboxamide 5-oxide] | < 1000 nM
2 | CCN1C(=O)c2ccccc2[S+]([O-])c2ccc(C(=O)NCc3ccccc3)cc21 (stereo not drawn) [Compound 4, N-Benzyl-10-ethyl-11-oxo-10,11-dihydrodibenzo[b,f][1,4]thiazepine-8-carboxamide 5-oxide] | < 1000 nM
3 | CCN1C(=O)c2ccccc2[S+]([O-])c2ccc(C(=O)NC(C)c3ccccc3)cc21 (stereo not drawn) [Compound 5, 10-Ethyl-11-oxo-N-(1-phenylethyl)-10,11-dihydrodibenzo[b,f][1,4]thiazepine-8-carboxamide 5-oxide] | < 1000 nM
4 | CCN1C(=O)c2ccccc2[S+]([O-])c2ccc(C(=O)NCc3ccc(SC)cc3)cc21 (stereo not drawn) [Compound 6, 10-Ethyl-N-(4-(methylthio)benzyl)-11-oxo-10,11-dihydrodibenzo[b,f][1,4]thiazepine-8-carboxamide 5-oxide] | < 1000 nM
5 | CCN1C(=O)c2ccccc2[S+]([O-])c2ccc(C(=O)NCc3ccc(C(C)(C)C)cc3)cc21 (stereo not drawn) [Compound 7, N-(4-tert-Butylbenzyl)-10-ethyl-11-oxo-10,11-dihydrodibenzo[b,f][1,4]thiazepine-8-carboxamide 5-oxide] | < 1000 nM
6 | CCN1C(=O)c2ccccc2[S+]([O-])c2ccc(C(=O)NCc3ccc(C)cc3)cc21 (stereo not drawn) [Compound 8, 10-Ethyl-N-(4-methylbenzyl)-11-oxo-10,11-dihydrodibenzo[b,f][1,4]thiazepine-8-carboxamide 5-oxide] | < 1000 nM
7 | CCN1C(=O)c2ccccc2[S+]([O-])c2ccc(C(=O)NCc3ccc(C(F)(F)F)cc3)cc21 (stereo not drawn) [Compound 9, 10-Ethyl-11-oxo-N-(4-(trifluoromethyl)benzyl)-10,11-dihydrodibenzo[b,f][1,4]thiazepine-8-carboxamide 5-oxide] | < 1000 nM
8 | CCN1C(=O)c2ccccc2[S+]([O-])c2ccc(C(=O)NCc3ccc(F)cc3)cc21 (stereo not drawn) [Compound 10, 10-Ethyl-N-(4-fluorobenzyl)-11-oxo-10,11-dihydrodibenzo[b,f][1,4]thiazepine-8-carboxamide 5-oxide] | < 1000 nM
9 | CCN1C(=O)c2ccccc2[S+]([O-])c2ccc(C(=O)NCc3ccc(Cl)cc3)cc21 (stereo not drawn) [Compound 11] | < 1000 nM
10 | CCN1C(=O)c2ccccc2[S+]([O-])c2ccc(C(=O)NCc3ccc(C#N)cc3)cc21 (stereo not drawn) [Compound 12, N-(4-Cyanobenzyl)-10-ethyl-11-oxo-10,11-dihydrodibenzo[b,f][1,4]thiazepine-8-carboxamide 5-oxide] | < 1000 nM
11 | CCN1C(=O)c2ccccc2[S+]([O-])c2ccc(C(=O)NCc3ccc(S(C)(=O)=O)cc3)cc21 (stereo not drawn) [Compound 13, 10-Ethyl-N-(4-(methylsulfonyl)benzyl)-11-oxo-10,11-dihydrodibenzo[b,f][1,4]thiazepine-8-carboxamide 5-oxide] | < 1000 nM
12 | CCN1C(=O)c2ccccc2[S+]([O-])c2ccc(C(=O)NCc3ccc4c(c3)OCO4)cc21 (stereo not drawn) [Compound 15, N-(benzo[d][1,3]dioxol-5-ylmethyl)-10-ethyl-11-oxo-10,11dihydrodibenzo[b,f][1,4]thiazepine-8-carboxamide 5-oxide] | < 1000 nM
13 | CCN1C(=O)c2ccccc2[S+]([O-])c2ccc(C(=O)Nc3ccccc3)cc21 (stereo not drawn) [Compound 16, 10-Ethyl-11-oxo-N-phenyl-10,11-dihydrodibenzo[b,f][1,4]thiazepine-8-carboxamide 5-oxide] | < 1000 nM
14 | CCN1C(=O)c2ccccc2[S+]([O-])c2ccc(C(=O)Nc3ccc(OC)cc3)cc21 (stereo not drawn) [Compound 17, 10-Ethyl-N-(4-methoxyphenyl)-11-oxo-10,11-dihydrodibenzo[b,f][1,4]thiazepine-8-carboxamide 5-oxide] | < 1000 nM
15 | CCN1C(=O)c2ccccc2[S+]([O-])c2ccc(C(=O)NCCc3ccc(OC)cc3)cc21 (stereo not drawn) [Compound 18, 10-Ethyl-N-(4-methoxyphenethyl)-11-oxo-10,11-dihydrodibenzo[b,f][1,4]thiazepine-8-carboxamide 5-oxide] | < 1000 nM
16 | CCCN1C(=O)c2ccccc2[S+]([O-])c2ccc(C(=O)NCc3ccc(OC)cc3)cc21 (stereo not drawn) [Compound 21, N-(4-Methoxybenzyl)-11-oxo-10-propyl-10,11-dihydrodibenzo[b,f][1,4]thiazepine-8-carboxamide 5-oxide] | < 1000 nM
17 | CCN1C(=O)c2ccccc2Sc2ccc(C(=O)NCc3ccc(OC)cc3)cc21 [Compound 36, 10-Ethyl-N-(4-methoxybenzyl)-11-oxo-10,11-dihydrodibenzo[b,f][1,4]thiazepine-8-carboxamide] | < 1000 nM
18 | CCN1C(=O)c2ccccc2[S+]([O-])c2ccc(NC(=O)Cc3ccc(OC)cc3)cc21 (stereo not drawn) [Compound 45, N-(10-Ethyl-11-oxo-10,11-dihydrodibenzo[b,f][1,4]thiazepin-8-yl)-2-(4-methoxyphenyl)acetamide 5-oxide] | < 1000 nM
19 | CCN1C(=O)c2ccccc2[S+]([O-])c2ccc(NC(=O)Cc3ccc(F)cc3)cc21 (stereo not drawn) [Compound 46, N-(10-Ethyl-11-oxo-10,11-dihydrodibenzo[b,f][1,4]thiazepin-8-yl)-2-(4-fluorophenyl)acetamide 5-oxide] | < 1000 nM

The next lines start with the values.

Row | AC50 | SMILES
20 | < 1000 nM | COc1ccc(CNC(=O)c2ccc3c(c2)N(C)C(=O)c2ccccc2[S+]3[O-])cc1 (stereo not drawn) [Compound 20, N-(4-Methoxybenzyl)-10-methyl-11-oxo-10,11-dihydrodibenzo[b,f][1,4]thiazepine-8-carboxamide 5-oxide]
21 | < 1000 nM | COc1ccc(NC(=O)c2ccc3c(c2)N(C)C(=O)c2ccccc2[S+]3[O-])cc1 (stereo not drawn) [Compound 24, N-(4-Methoxyphenyl)-10-methyl-11-oxo-10,11-dihydrodibenzo[b,f][1,4]thiazepine-8-carboxamide 5-oxide]
22 | < 1000 nM | CN1C(=O)c2ccccc2[S+]([O-])c2ccc(C(=O)NCc3ccccc3)cc21 (stereo not drawn) [Compound 25, N-Benzyl-10-methyl-11-oxo-10,11-dihydrodibenzo[b,f][1,4]thiazepine-8-carboxamide 5-oxide]
23 | < 1000 nM | CN1C(=O)c2ccccc2[S+]([O-])c2ccc(C(=O)NCc3ccc(F)cc3)cc21 (stereo not drawn) [Compound 26, N-(4-Fluorobenzyl)-10-methyl-11-oxo-10,11-dihydrodibenzo[b,f][1,4]thiazepine-8-carboxamide 5-oxide]
24 | < 1000 nM | CN1C(=O)c2ccccc2[S+]([O-])c2ccc(C(=O)NCc3ccc(Cl)cc3)cc21 (stereo not drawn) [Compound 27, N-(4-Chlorobenzyl)-10-methyl-11-oxo-10,11-dihydrodibenzo[b,f][1,4]thiazepine-8-carboxamide 5-oxide]
25 | < 1000 nM | CN1C(=O)c2ccccc2[S+]([O-])c2ccc(C(=O)NCc3cccc(Cl)c3)cc21 (stereo not drawn) [Compound 28, N-(3-Chlorobenzyl)-10-methyl-11-oxo-10,11-dihydrodibenzo[b,f][1,4]thiazepine-8-carboxamide 5-oxide]
26 | < 1000 nM | CN1C(=O)c2ccccc2[S+]([O-])c2ccc(C(=O)NCc3ccc(Br)cc3)cc21 (stereo not drawn) [Compound 29, N-(4-Bromobenzyl)-10-methyl-11-oxo-10,11-dihydrodibenzo[b,f][1,4]thiazepine-8-carboxamide 5-oxide]
27 | < 1000 nM | CN1C(=O)c2ccccc2[S+]([O-])c2ccc(C(=O)NCc3cccnc3)cc21 (stereo not drawn) [Compound 31, 10-Methyl-11-oxo-N-(pyridin-3-ylmethyl)-10,11-dihydrodibenzo[b,f][1,4]thiazepine-8-carboxamide 5-oxide]
28 | < 1000 nM | CN1C(=O)c2ccccc2[S+]([O-])c2ccc(C(=O)NCCN3CCCC3)cc21 (stereo not drawn) [Compound 33, 10-Methyl-11-oxo-N-(2-(pyrrolidin-1-yl)ethyl)-10,11-dihydrodibenzo[b,f][1,4]thiazepine-8-carboxamide 5-oxide]
29 | < 1000 nM | CN1C(=O)c2ccccc2[S+]([O-])c2ccc(C(=O)NCCN3CCCCC3)cc21 (stereo not drawn) [Compound 34, 10-Methyl-11-oxo-N-(2-(piperidin-1-yl)ethyl)-10,11-dihydrodibenzo[b,f][1,4]thiazepine-8-carboxamide 5-oxide]
30 | < 1000 nM | CN(C)CCCNC(=O)c1ccc2c(c1)N(C)C(=O)c1ccccc1[S+]2[O-] (stereo not drawn) [Compound 35, N-(3-(Dimethylamino)propyl)-10-methyl-11-oxo-10,11-dihydrodibenzo[b,f][1,4]thiazepine-8-carb oxamide 5-oxide]
